Measured values as given in US8414879B2, “Superporous hydrogel with cells encapsulated therein and method for producing the same” (The Board of Trustees of the University of Illinois, priority 2008, dated 2013).
Like-named read-outs stand apart in the source and are kept apart here.

Legend:
cells [1] = test system: cells
Experimental: Effect of Hydrogel Precursor Solution Components on Cell Viability. Cells (10^5 cells/mL) were plated on 48-well plates and were allowed to adhere to the plates overnight. […] The pH of one solution was adjusted to 5 (using […]) and that of the other solution was adjusted to 8 (using 1 M NaOH). […] The treatment groups were compared to untreated controls where cells were incubated with media. […] To this, 30 μL of MTS test reagent was added. Cells were then incubated with MTS test reagent for 3 hours and absorbance recorded at 490 nm on a UV plate reader.
(§1) Specifically, cells were treated with 0.05% to 1.5% (w/v) APS at pH 5 for 10 minutes or 0.05% to 1.5% (w/v) APS at pH 8 for 24, 48, or 72 hours and compared to controls in a MTS test and LIVE/DEAD cell assay. Similarly, cells were treated with 0.05% to 0.90% (w/v) TEMED at pH 5 for 10 minutes or 0.05% to 0.90% (w/v) TEMED at pH 8 for 24, 48, or 72 hours and compared to controls in a MTS test and LIVE/DEAD cell assay. Likewise, cells were treated with 0.05% to 1.0% (w/v) F-127 at pH 5 for 10 minutes or 0.05% to 1.0% (w/v) F-127 at pH 8 for 24, 48, or 72 hours and compared to controls in a MTS test and LIVE/DEAD cell assay.
(§2) Treatment groups were compared to untreated controls in both a MTS test and LIVE/DEAD cell assay.
(§3) The suspension in the test tube was allowed to stand for 5 minutes. Cells were treated with the supernatant for 10 minutes or 24, 48, or 72 hours. The saturated solution was aspirated from the wells, cells were washed and analyzed with the MTS test and LIVE/DEAD cell assay.
(§4) The effects of precursor solution constituents on cell viability were analyzed over a 72 hour period. The experiments were designed based on the conditions that the cells would be exposed to during the fabrication of superporous hydrogels; i.e., exposure to each constituent of SPH individually at pH of 5 for 10 minutes and thereafter for 24, 48 and 72 hours at pH of 8. […] 96 AQUEOUS ONE® solution Cell Proliferation Assay (MTS) and LIVE/DEAD cell assay were used to determine the effect of each of the constituents on cell viability.

cells [2] = assay: Effect of precursor solution components, LIVE/DEAD cell assay
Experimental: LIVE/DEAD cell assay was used to visualize live and dead cells (Gaugain, et al. (1978) Biochemistry 17:5071-8; Gaugain, et al. (1978) Biochemistry 17:5078-88). […] To the resuspended cells was added 100 μL of calcein-AM/ethidium homodimer stain (stock solutions of the dyes were prepared as per manufacturer's protocol-Molecular Probes). Cells were incubated for 30 minutes and images were captured of both treatment and control groups using a fluorescence microscope.
as §1, §2, §3, §4

gingival fibroblasts = details: cited from earlier work
cells [3] = assay: Effect of physical foaming (nitrogen gas/compressed air) on cell viability; format: cell-based
Experimental: Effect of Physical Foaming on Cell Viability. Cells (10^5 cells/mL) were suspended in media and treated with the precursor solution used in fabrication of superporous hydrogels. […] The precursor solution was then exposed to UV for 3.5 minutes. In one treatment group nitrogen gas/compressed air was applied to the top of the cells at 200 psi for 2 minutes at a flow rate of 4000 mL/minute. In a second treatment group, nitrogen gas/compressed air was applied from below the cells suspended in the Buchner funnel at 200 psi for 2 minutes at a flow rate of 4000 mL/minute. Thereafter, each of the groups was exposed to UV at 5 mW/cm^2 for 3 minutes, washed twice with DPBS containing Ca and Mg, resuspended in fresh media and transferred to a 48-well plate. Cells were incubated for 24, 48 and 72 hours and cell viability was determined via the MTS test and LIVE/DEAD cell assay.

cells [4] = details: cells in media at pH 5, 10 minutes, MTS and LIVE/DEAD
Experimental: A third group was the untreated controls. At the end of 10 minutes, the cells were washed, resuspended in fresh media, and analyzed with the MTS test reagent and LIVE/DEAD cell assay.

In the case of `N.N.O=S(=O)(O)OOS(=O)(=O)O` [APS, Ammonium persulphate], the cell viability (cells [1]; 0.05% APS, MTS) is reported as 60%, the viable cells (cells [1]; 0.70% APS, 10 minutes, pH 5, MTS) is reported as 21.25±9.6% and the viable cells (cells [1]; 0.70% APS, 24 hours, pH 8, MTS) is reported as 16.83±4.8%. The viable cells (cells [1]; 0.70% APS, 48 hours, pH 8, MTS) was 14.8±6.8%, the viable cells (cells [1]; 0.70% APS, 72 hours, pH 8, MTS) was 11.63±0.3% and the toxicity (cells [1]; APS 0.05% to 1.5%, 10 minutes, 24, 48 and 72 hours) was “toxic to cells at all concentrations tested”. The live/dead cells (cells [2]; 0.05% APS) was “the cells were dead” and the live/dead cells (cells [2]; APS, end of each incubation period) was “dead cells at the end of each of the incubation periods”.
Work on `CN(C)CCN(C)C` [TEMED, N,N,N′,N′-tetramethylethylenediamine] yielded a viable cells (cells [1]; 0.90% TEMED, 10 minutes, pH 5, MTS) of 108.59±1.23%, a viable cells (cells [1]; 0.90% TEMED, 24 hours, pH 8, MTS) of 30.63±5.51% and a viable cells (cells [1]; 0.90% TEMED, 48 hours, pH 8, MTS) of 20.41±6.92%. The viable cells (cells [1]; 0.90% TEMED, 72 hours, pH 8, MTS) was 18.53±12.82%, the toxicity (cells [1]; TEMED 0.05% to 0.90%, 10 minutes) was “no significant toxicity” and the toxicity (cells [1]; TEMED all concentrations, 24, 48 and 72 hours) was “toxicity observed at all concentrations”. The live/dead cells (cells [2]; TEMED all concentrations, 10 minutes) was “cells were alive” and the live/dead cells (cells [2]; TEMED, longer time periods) was “they were dead”.
In the case of `O=C(O)CC(O)(CC(=O)O)C(=O)O` [citric acid], the viable cells (cells [1]; 10 min, 2.4 % (w/v), pH 5) is reported as “about 99.7±11.6%”, the viable cells (cells [1]; 24 h, 2.4 % (w/v), pH 8) is reported as 28.95±5.70% and the viable cells (cells [1]; 48 h, 2.4 % (w/v), pH 8) is reported as 15.81±1.80%. The viable cells (cells [1]; 72 h, 2.4 % (w/v), pH 8) was 16.20±6.81%, the cell death (gingival fibroblasts; 47.6 mM (pH 2.3) in water, within three minutes) was “complete cell death” and the “inhibition of attachment and spreading of fibroblasts on Type I collagen” value (gingival fibroblasts; medium containing 11.9 mM) was 22%. For the same molecule, the “inhibition of attachment and spreading of fibroblasts on culture plates” value (gingival fibroblasts; medium containing 11.9 mM) was 58% and the “inhibition of protein synthesis” value (gingival fibroblasts; within three hours of incubation) was 0.28%.
For `N#N` [nitrogen gas under pressure], the “cell death over 72 hours” value (cells [3]; cells washed and plated for 24, 48 and 72 hours after foaming) was “cell death observed over 72 hours” and the “cell death compared to untreated controls” value (cells [3]; determined immediately after treating cells) was “approximately 20%”.
For `[Na+].[OH-]` [sodium hydroxide], the “cell death on sudden pH change from acidic to alkaline” value (cells [4]) was “a significant amount of cell death”.
